From patent publication US20140121126A1, “METHODS OF DETECTING AXL AND GAS6 IN CANCER PATIENTS” (Memorial Sloan-Kettering Cancer Center, priority 2012, published 2014)

Tests used:
[1] = test system: H3255 ER sublines; assay: Cell viability, erlotinib-resistant H3255 ER sublines; assay type: cell-based, human; conditions: for effect on sensitivity to concurrent erlotinib treatment: H3255 ER sublines
Excerpt: Establishment of erlotinib-resistant subclones.
(§1) Cell growth and viability assays.

[2] = test system: HCC827 ER3 cells; assay: Migration and adhesion, HCC827 ER3 cells; assay type: cell-based, human; conditions: XL-880 1 μM (FIG. 4c-d)
Experimental: (§2) [Vuoriluoto, K. et al. Oncogene 30, 1436-1448 (2011)] […] Together, the data support a possible role for an EMT that is marked by vimentin overexpression in the development of acquired EGFR TKI resistance that is driven by AXL in this model of human EGFR mutant lung cancer.
(§3) Migration and adhesion studies. 180,000 cells were plated onto 3.5 cm cell culture dishes. At 30 minutes, the dishes were washed and cells were fixed and stained for counting. Average cell numbers of 5 random 100× fields under light microscope are presented with ±SEM. Migration: 10,000 cells in 200 μl medium without FBS were placed in the upper chamber of transwells (6.5 mm diameter, 8 μm pore size polycarbonate membrane, Corning), and the lower chamber filled with 1 ml of medium with 10% FBS supplemented with or without the indicated drug treatments. After incubation for 16 hours, non-migrating cells were removed with cotton swabs, and the cells that migrated into the lower surface of the filters were stained with crystal violet. Cells were counted under a microscope, and triplicate results are expressed as means±SEM.

[3] = test system: parental HCC827 cells; assay: Migration and adhesion, parental HCC827 cells; assay type: cell-based, human; conditions: XL-880 1 μM (FIG. 4c-d)
Experimental: as §2, §3

[4] = test system: HCC827 ER1 and ER2 cells; assay: Western blot of signaling biomarkers, HCC827 ER1 and ER2 cells; assay type: cell-based, human; conditions: for erlotinib effects (decreased pEGFR, pERK, pAKT, pRelA, increased cleaved Parp) with concurrent AXL inhibitor: concurrent treatment with erlotinib, 48 h
Experimental: (§4) Western blot analysis. Cells were serum starved overnight and whole cell lysates were prepared using 10% TCA lysis or RIPA buffer and clarified by centrifugation. Proteins were separated by 10% SDS-PAGE gel and transferred onto PVDF membranes (Invitrogen) for Western blot analysis. After primary antibody incubation overnight, washing and incubation with secondary antibodies, blots were developed with a chemiluminescence system (Pierce).

[5] = test system: HCC827 cells expressing AXL constructs; assay: Viability of HCC827 cells expressing AXL cDNA constructs; assay type: cell-based, human
Excerpt: (§5) To address these questions, we generated cDNA constructs that encode either wild type (WT) AXL or a kinase-impaired mutant of AXL in which a key conserved lysine within the kinase domain was changed to arginine (K567R).
as §1
(§6) AXL cDNA and overexpression studies. The AXL gene with an HA tag at the C-terminus was amplified by overlapping PCR using cDNA generated from ER3 cells and cloned into pcDNA3.1 (+) vector. Amino acid changes (K567R or L620M) were introduced using the Strategene QuickChange Mutagenesis Kit, according to the manufacturer's protocol. The accuracy of the constructs was confirmed by DNA sequencing. Cells were transfected with the AXL-expressing vectors or empty vector as a control by using FuGENE HD reagent according to the manufacturer's protocol (Roche Applied Sciences, Indianapolis, Ind., USA). Stable HCC827 subclones resistant to the selection antibiotic, 500 μg/ml G418 were generated 24 hours post-transfection. Empty-vector expressing HCC827 cells were generated as a control. AXL protein expression was detected by using anti-HA probe (Santa Cruz Biotechnology).

[6] = test system: AXL; assay: pAXL western blot in HCC827 cells expressing AXL L620M; assay type: cell-based, human
Experimental: Cancer research 69, 8009-8016 (2009); Yun, C. H. et al. PNAS 105, 2070-2075 (2008)] (FIG. 18).
as §4, §6

[7] = test system: HCC827 cells; assay: Cell viability assay (CellTiterGLO), parental HCC827 cells; conditions: 1 μM alone
Experimental: Cell lines and reagents. The human lung cancer cell lines were purchased from the American Type Culture Collection except for H3255, PC-9 cells were generously provided. Cells were grown in RPMI 1640 supplemented with 10% FBS and 1× Antibiotic/Antimycotic (Invitrogen) and were in the logarithmic growth phase at the initiation of all experiments. […] Drugs were dissolved in DMSO at 10 mM and stored at −20° C. The final DMSO concentration in all experiments was <0.1% in medium. All antibodies were purchased from Cell Signaling (Boston, Mass.) except the anti-AXL and anti-phospho-AXL and anti-GAS6 antibodies, which were purchased from R&D Systems (Minneapolis, Minn.).
(§8) Cell growth and viability assays. Cells were seeded at a density of 3000 cells/well in 96-well plates in RPMI 1640 containing 10% FBS overnight, then treated with respective agents for an additional 3 days. Viable cell numbers were determined using CellTiterGLO or MTS assay kit, as indicated in the descriptions of the drawings, according to the manufacturer's protocols (Promega, Madison, Wis., USA). Each assay consisted of 3 replicate wells and was repeated at least twice. Data were expressed as the percentage survival of control calculated from the absorbance, corrected for background.

[8] = test system: HCC827 ER1-ER5 sublines; assay: Cell viability assay (CellTiterGLO), erlotinib resistant HCC827 ER1-ER5 sublines; conditions: for effect of single-agent treatment on cell viability: 1 μM alone, HCC827 ER cells; for effect on sensitivity to concurrent erlotinib treatment: AXL inhibitor 1 μM plus erlotinib, each ER subline
Experimental: as §8

[9] = test system: ER4 cells; assay: Apoptosis by PARP cleavage and BIM induction in ER4 cells; assay type: cell-based, human; conditions: 24 hour exposure; AD57 1 micromolar, AD80 1 micromolar
Experimental: FIG. 22. Induction of apoptosis by combined EGFR and AXL inhibition. […] 24-hour drug exposure. Apoptosis measured by induction of PARP cleavage and BIM induction.

[10] = test system: HCC827ER cells; assay: Combination index (CI) analysis with erlotinib; assay type: cell-based, human; conditions: ER1 and ER4 sublines; 1:1 ratio; CI < 1 = synergism
Excerpt: Combination index (CI) analysis. […] The fraction affected (Fa) (i.e., Fa of 0.25 is equivalent to 75% viable cells) and CI values processed using CalcuSyn software (Biosoft, Cambridge, UK). CI values of less than 1, 1, and greater than 1 were taken as synergism, additive effect, and antagonism, respectively.

[11] = test system: H3255 cells; assay: Cell viability, parental H3255 cells; assay type: cell-based; conditions: Homo sapiens, NCI-H3255, read-out: erlotinib IC50, EGFR L858R
Experimental: as §8

[12] = test system: PC9 cells; assay: Cell viability (CellTiterGLO), PC9 cells; assay type: cell-based; conditions: Homo sapiens, PC-9, read-out: erlotinib IC50, EGFR exon 19-deletion mutant
Excerpt: as §5, §1

[13] = test system: HCC827 xenograft tumors
Experimental: (§7) Tumorigenesis assays. Human lung cancer cells (as indicated) were injected subcutaneously into the flanks of CB17 SCID mice (Taconic). […] Tumor measurements were made on days indicated and expressed as described in the descriptions of the drawings. All animal experiments were performed in compliance with the guidelines of the Research Animal Resource Center of the Memorial Sloan-Kettering Cancer Center.

[14] = test system: HCC827 ER1 tumors; assay: HCC827 ER1 xenograft tumors treated with erlotinib; assay type: in vivo, mice; conditions: ER1 tumors transduced with non-target shRNA, 12.5 mg/kg/day
Experimental: as §7

[15] = test system: parental HCC827 cells; assay: Western blot of signaling biomarkers, parental HCC827 cells; assay type: cell-based, human; conditions: erlotinib 100 nM
Experimental: as §4

[16] = test system: HCC827 tumors; assay: Western blot of signaling biomarkers in HCC827 xenograft tumors; assay type: in vivo, mice
Experimental: as §4, §7

[17] = ER4 cells, 0.1, 1, 10 micromolar in combination with erlotinib

COc1cc2c(Oc3ccc(NC(=O)C4(C(=O)Nc5ccc(F)cc5)CC4)cc3F)ccnc2cc1OCCCN1CCOCC1 [XL-880, foretinib]
effect on sensitivity to concurrent erlotinib treatment [1]: restored sensitivity to concurrent erlotinib treatment | effect on migration and adhesion [2]: inhibited migration and adhesion | effect on migration and adhesion [3]: had no effect | erlotinib effects (decreased pEGFR, pERK, pAKT, pRelA, increased cleaved Parp) with concurrent AXL inhibitor [4]: observed only upon concurrent treatment | ability to restore erlotinib sensitivity ([5]; XL-880 1 μM, HCC827 cells expressing AXL L620M): abrogated the ability | effect on erlotinib resistance induced by overexpression of WT AXL ([5]; XL-880 1 μM, HCC827 cells overexpressing WT AXL): reversed | change of IC50 for XL-880 ([5]; expression of AXL L620M gatekeeper mutant): significantly increased | ability to decrease pAXL [6]: blocked the ability | effect of single-agent treatment on cell viability [7]: did not significantly affect the viability | effect of single-agent treatment on cell viability [8]: did not significantly affect the viability | effect on sensitivity to concurrent erlotinib treatment [8]: restored sensitivity to concurrent erlotinib treatment

CC(C)n1nc(-c2ccc(NC(=O)Nc3cccc(C(F)(F)F)c3)cc2)c2c(N)ncnc21 [AD57]
apoptosis (PARP cleavage and BIM induction) combined with erlotinib [9]: enhances apoptosis | effect on sensitivity to erlotinib [8, 17]: confer dose-dependent sensitivity to erlotinib

C[C@@H](Oc1cc(-c2cnn(C3CCNCC3)c2)cnc1N)c1c(Cl)ccc(F)c1Cl [Crizotinib, crizotinib]
effect on sensitivity to erlotinib ([8]; ER cells, at 10 μM, in combination with erlotinib): confers dose-dependent sensitivity to erlotinib

S=C(NCc1ccc2c(c1)OCO2)N1CCN(c2ncnc3c2oc2ccccc23)CC1 [MP-470, amuvatinib]
effect on sensitivity to concurrent erlotinib treatment [1]: restored sensitivity to concurrent erlotinib treatment | synergy with concurrent erlotinib treatment (combination index) [10]: synergistic | erlotinib effects (decreased pEGFR, pERK, pAKT, pRelA, increased cleaved Parp) with concurrent AXL inhibitor [4]: observed only upon concurrent treatment | effect of single-agent treatment on cell viability [7]: did not significantly affect the viability | effect of single-agent treatment on cell viability [8]: did not significantly affect the viability | effect on sensitivity to concurrent erlotinib treatment [8]: restored sensitivity to concurrent erlotinib treatment

C#Cc1cccc(Nc2ncnc3cc(OCCOC)c(OCCOC)cc23)c1 [Erlotinib, erlotinib]
IC50 [11]: ~15 nM | IC50 ([1]; Homo sapiens, NCI-H3255, read-out: erlotinib IC50, 2 isogenic erlotinib-resistant sublines of H3255 (EGFR L858R)): > 1000 nM | IC50 [12]: ~25 nM | Maximum Volume Reduction (% change from baseline) ([13]; erlotinib 25 mg/kg, 10 tumors per group, average): −69 % change from baseline | Time to Maximum Volume Reduction (weeks) ([13]; erlotinib 25 mg/kg, median ± SEM): 5 ± 0.2 weeks | tumor response to erlotinib treatment ([13]; parental HCC827 tumors, 12.5 mg/kg/day): sensitive | tumor response to erlotinib treatment [14]: erlotinib-resistant | effect on pERK, pAKT, pRelA and Parp cleavage [15]: decreased pERK, pAKT and pRelA (a marker of NF-kB signaling) and increased Parp cleavage | effect on pEGFR ([15]; parental HCC827): decreased pEGFR | effect on pEGFR ([4]; erlotinib 100 nM, ER1 and ER2 sublines): decreased pEGFR | effect on pEGFR, pErbB3 and pMET in tumors ([16]; sensitive tumors at 48 h and resistant tumors at each dose, vs vehicle): decreased levels of pEGFR, pErbB3, and pMET | effect on pAKT, pERK, pRelA and Parp cleavage in tumors ([16]; sensitive tumors, 48 h treatment, 12.5 mg/kg/day): decreased pAKT, pERK, and pRelA and increased Parp cleavage

CC(C)n1nc(-c2ccc(NC(=O)Nc3cc(C(F)(F)F)ccc3F)cc2)c2c(N)ncnc21 [AD80]
apoptosis (PARP cleavage and BIM induction) combined with erlotinib [9]: enhances apoptosis | effect on sensitivity to erlotinib [8, 17]: confer dose-dependent sensitivity to erlotinib
